We go through 27 molecules from ChEMBL document CHEMBL5214883, “Comprehensive review for anticancer hybridized multitargeting HDAC inhibitors” (Eur J Med Chem, 2021).

Bounds are passed on as bounds.

In general, IC50 refers to the concentration that gives 50% inhibition. As usually defined, the inhibition is the change of the read-out against control, counted positive when it falls.

Assay [1] deals with Histone deacetylase. Description: Inhibition of HDAC (unknown origin) by H4 Hybrid Multi-Mode Microplate Reade. The class given is protein assay, Homo sapiens.
For assay [2], the target named is Histone deacetylase. In words: Inhibition of HDAC (unknown origin). The class given is protein assay, Homo sapiens.
Assay [3] addresses T1, Histone deacetylase 1 (Homo sapiens, UniProt Q13547). Description: Inhibition of HDAC1 (unknown origin) relative to control. The note with it: concentration not given here.
Assay [4] concerns the target cGMP-specific 3',5'-cyclic phosphodiesterase (Homo sapiens, UniProt O76074). Description: Inhibition of PDE5 (unknown origin) incubated for 1.5 hrs by IMAP fluorescence polarization phosphodiesterase evaluation assay. (Fluorescence polarisation rises when a labelled molecule tumbles more slowly, as on binding a larger partner.)
Assay [5] has as its target T2, Epidermal growth factor receptor (Homo sapiens, UniProt P00533). Description: Inhibition of EGFR (unknown origin).
Assay [6] has as its target Vascular endothelial growth factor receptor 2 (Homo sapiens, UniProt P35968). In words: Inhibition of VEGFR2 (unknown origin).
The subject of assay [7] is DU-145. In words: Antiproliferative activity against human DU-145 cells incubated for 48 hrs by Sulforhodamine B staining method. The class given is functional, cell-based. The note with it: DU-145, 48 h. Background: The SRB assay estimates cell density from bound dye.
In another assay the target is Tubulin. Description: Inhibition of tubulin polymerization (unknown origin) incubated for 15 mins in presence of GTP by fluorescence-based tubulin polymerization assay kit. The class given is protein-complex assay, Homo sapiens.
Assay [8] concerns the target T1, Histone deacetylase 1. Description: Inhibition of HDAC1 in human HeLa cell nuclear extract using Bos-Lys(acetyl)-AMC as substrate preincubated for 5 mins followed by substrate addition incubated for 30 mins. It is filed as cell-free.
Assay [9] deals with Epidermal growth factor receptor (Homo sapiens), P00533 [UNDEFINED MUTATION]. In words: Inhibition of EGFR T790M (unknown origin) at 1 uM incubated for 40 mins in presence of ATP relative to control.
The subject of another assay is MCF7. In words: Cytotoxicity against human MCF7 cells. The class given is functional, cell-based.
The test system of assay [10] is DU-145. Description: Cytotoxicity against human DU-145 cells.
The next assay deals with K562. In words: Cytotoxicity against human K562 cells.
Assay [11] has as its target T2, Epidermal growth factor receptor. In words: Inhibition of EGFR wildtype (unknown origin) incubated for 40 mins in presence of ATP.

Epidermal growth factor receptor (Homo sapiens), P00533 [UNDEFINED MUTATION], sequence (P00533 whole entry, looked up, stated change not applied): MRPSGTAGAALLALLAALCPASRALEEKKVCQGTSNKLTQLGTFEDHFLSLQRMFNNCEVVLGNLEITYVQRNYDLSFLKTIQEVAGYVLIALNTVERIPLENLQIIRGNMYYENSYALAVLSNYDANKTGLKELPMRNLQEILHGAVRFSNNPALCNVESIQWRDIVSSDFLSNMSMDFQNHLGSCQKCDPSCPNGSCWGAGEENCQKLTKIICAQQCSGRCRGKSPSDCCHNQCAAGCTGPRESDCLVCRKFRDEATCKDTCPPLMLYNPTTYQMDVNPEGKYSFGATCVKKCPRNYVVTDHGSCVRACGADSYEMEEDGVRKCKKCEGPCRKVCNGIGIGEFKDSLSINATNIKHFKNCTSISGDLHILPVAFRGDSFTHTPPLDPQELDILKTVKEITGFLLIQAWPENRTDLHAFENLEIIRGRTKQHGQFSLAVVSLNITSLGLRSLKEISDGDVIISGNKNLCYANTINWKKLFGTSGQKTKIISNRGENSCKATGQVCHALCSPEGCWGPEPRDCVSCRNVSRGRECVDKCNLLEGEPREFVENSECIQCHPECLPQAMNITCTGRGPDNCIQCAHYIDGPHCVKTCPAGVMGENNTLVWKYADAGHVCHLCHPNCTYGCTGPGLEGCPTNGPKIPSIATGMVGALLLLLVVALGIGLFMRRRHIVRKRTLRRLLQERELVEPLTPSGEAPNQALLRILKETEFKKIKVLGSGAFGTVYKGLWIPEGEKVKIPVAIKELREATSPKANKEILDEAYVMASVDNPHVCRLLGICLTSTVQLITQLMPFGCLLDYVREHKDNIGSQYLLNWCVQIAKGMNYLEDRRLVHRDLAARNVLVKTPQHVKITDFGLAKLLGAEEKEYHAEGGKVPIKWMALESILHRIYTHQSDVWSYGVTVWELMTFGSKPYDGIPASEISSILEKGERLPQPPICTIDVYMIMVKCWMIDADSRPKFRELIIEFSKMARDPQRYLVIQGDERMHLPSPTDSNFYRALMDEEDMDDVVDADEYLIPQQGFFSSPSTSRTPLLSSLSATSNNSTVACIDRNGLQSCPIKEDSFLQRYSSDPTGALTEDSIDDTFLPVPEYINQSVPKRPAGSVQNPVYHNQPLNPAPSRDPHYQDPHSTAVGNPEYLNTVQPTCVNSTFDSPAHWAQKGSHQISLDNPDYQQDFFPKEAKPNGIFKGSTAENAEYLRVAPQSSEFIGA
T1 sequence (Q13547 whole entry): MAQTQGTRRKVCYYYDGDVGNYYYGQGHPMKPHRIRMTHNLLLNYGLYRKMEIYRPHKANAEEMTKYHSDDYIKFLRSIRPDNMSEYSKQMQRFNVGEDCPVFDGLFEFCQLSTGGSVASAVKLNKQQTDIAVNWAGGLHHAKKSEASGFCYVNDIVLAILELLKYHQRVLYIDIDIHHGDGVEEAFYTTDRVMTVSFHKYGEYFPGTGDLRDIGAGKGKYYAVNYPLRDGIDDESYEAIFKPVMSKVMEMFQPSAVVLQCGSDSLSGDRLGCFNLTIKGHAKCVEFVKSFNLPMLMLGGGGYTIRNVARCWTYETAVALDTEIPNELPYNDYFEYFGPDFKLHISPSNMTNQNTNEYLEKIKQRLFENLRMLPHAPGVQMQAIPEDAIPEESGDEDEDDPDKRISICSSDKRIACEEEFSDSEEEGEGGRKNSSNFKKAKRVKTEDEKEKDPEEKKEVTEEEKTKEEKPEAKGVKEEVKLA
T2 sequence (P00533 whole entry): as the sequence (P00533 whole entry, looked up, stated change not applied) above
Vascular endothelial growth factor receptor 2, sequence (P35968 whole entry): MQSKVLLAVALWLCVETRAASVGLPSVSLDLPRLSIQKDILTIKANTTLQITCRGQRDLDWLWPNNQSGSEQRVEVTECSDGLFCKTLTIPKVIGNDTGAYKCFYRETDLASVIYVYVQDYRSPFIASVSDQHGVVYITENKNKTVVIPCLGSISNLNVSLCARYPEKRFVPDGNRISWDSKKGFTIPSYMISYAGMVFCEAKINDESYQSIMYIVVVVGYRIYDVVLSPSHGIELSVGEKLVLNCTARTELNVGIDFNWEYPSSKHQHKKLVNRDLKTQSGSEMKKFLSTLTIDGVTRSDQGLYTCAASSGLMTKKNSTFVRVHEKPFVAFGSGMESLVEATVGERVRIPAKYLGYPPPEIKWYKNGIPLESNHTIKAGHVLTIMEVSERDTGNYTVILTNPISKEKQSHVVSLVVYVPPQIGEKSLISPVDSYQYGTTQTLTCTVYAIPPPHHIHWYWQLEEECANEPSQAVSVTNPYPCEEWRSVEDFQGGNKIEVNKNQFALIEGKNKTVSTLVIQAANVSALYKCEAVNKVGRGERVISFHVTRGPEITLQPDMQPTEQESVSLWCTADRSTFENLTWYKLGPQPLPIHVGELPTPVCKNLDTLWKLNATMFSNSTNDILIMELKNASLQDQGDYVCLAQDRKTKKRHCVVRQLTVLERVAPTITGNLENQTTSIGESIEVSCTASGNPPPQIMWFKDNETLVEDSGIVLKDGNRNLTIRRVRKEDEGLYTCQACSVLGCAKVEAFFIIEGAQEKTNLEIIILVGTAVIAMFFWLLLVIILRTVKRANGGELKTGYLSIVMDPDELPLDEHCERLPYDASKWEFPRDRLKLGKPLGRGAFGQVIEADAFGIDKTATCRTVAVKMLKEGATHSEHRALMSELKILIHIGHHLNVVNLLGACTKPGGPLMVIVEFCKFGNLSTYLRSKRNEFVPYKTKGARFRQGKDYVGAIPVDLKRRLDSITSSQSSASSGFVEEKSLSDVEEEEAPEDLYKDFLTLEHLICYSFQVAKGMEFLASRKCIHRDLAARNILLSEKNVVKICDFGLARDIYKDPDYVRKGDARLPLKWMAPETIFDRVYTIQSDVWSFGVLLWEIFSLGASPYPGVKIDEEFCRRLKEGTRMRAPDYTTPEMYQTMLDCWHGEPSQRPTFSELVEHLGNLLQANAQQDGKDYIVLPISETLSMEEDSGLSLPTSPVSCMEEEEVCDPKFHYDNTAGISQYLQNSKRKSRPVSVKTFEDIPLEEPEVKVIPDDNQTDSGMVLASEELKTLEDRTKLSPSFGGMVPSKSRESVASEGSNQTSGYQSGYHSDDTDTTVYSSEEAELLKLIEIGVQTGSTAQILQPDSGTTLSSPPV

Regarding `O=C(CCCCCN1CC(=O)N2[C@@H](CC3c4ccccc4NC3[C@@H]2c2ccc(Br)cc2)C1=O)NO` (some centres undefined), the IC50 against Histone deacetylase [1] stood at 0.0612 µM.

`CNC(=O)c1cc(Oc2ccc(NC(=O)c3cccc(O)c3)cc2)ccc1N`: the IC50 on Histone deacetylase [2] stood at 1.95 µM.

`O=C(CCn1cc(CCn2nc3c(Br)c(Br)c(Br)c(Br)c3n2)nn1)NO` had an inhibition at Histone deacetylase 1 [3] of 97%.

For the molecule `CNC(=O)c1cc(Oc2ccc(NC(=O)c3cccc(N)c3)cc2)ccc1N`, the IC50 on Histone deacetylase [2] amounted to 1.03 µM.

In [4], `O=C(O)CCN1CC(=O)N2[C@H](CC3c4ccccc4NC3[C@H]2c2ccc(Br)cc2)C1=O` (some centres undefined) had an IC50 of 0.002 µM.

Consider `CNC(=O)c1cc(Oc2ccc(NC(=O)c3ccc(Cl)c(C(F)(F)F)c3)cc2)ccc1N`, for which the IC50 against Histone deacetylase [2] was found to be 1.17 µM.

At Histone deacetylase [2], `CN(C)C(=O)c1cc(Oc2ccc(NC(=O)c3ccc(Cl)c(C(F)(F)F)c3)cc2)ccc1N` returned an IC50 above 1000 µM.

Turning to `O=C(CCCCCCC(=O)Nc1ccccc1)NO` [VORINOSTAT], the IC50 is 0.012 µM in assay [5], above 10 µM in [6] and 0.79 µM in the assay on DU-145 [7].

`C[C@H]1COc2c(N3CCN(C)CC3)c(F)cc3c(=O)c(C(=O)OCc4cn(CCCCCCCC(=O)NO)nn4)cn1c23`: the IC50 at Tubulin was 6.63 µM.

For `COc1cc(NC(=O)CCCCCC(=O)NO)ccc1Nc1nccc(-c2cn(C)c3ccccc23)n1`, 0.121 µM corresponded to half-maximal inhibition on Histone deacetylase 1 [8] (IC50). Further, the inhibition in assay [9] was 13%.

`CNC(=O)c1cc(Oc2ccc(NC(=O)c3ccccc3)cc2)ccc1N` came in with an IC50 at Histone deacetylase [2] of 6.19 µM.

At Histone deacetylase [2], `NC(=O)c1cc(Oc2ccc(NC(=O)c3ccc(Cl)c(C(F)(F)F)c3)cc2)ccc1N` displayed an IC50 of 2.79 µM.

Regarding `CNC(=O)c1cc(Oc2ccc(NC(=O)c3cccnc3)cc2)ccc1N`, the IC50 on Histone deacetylase [2] was found to be 5.23 µM.

`C[C@H]1COc2c(N3CCN(C)CC3)c(F)cc3c(=O)c(C(=O)NCc4cn(CCCCCCC(=O)NO)nn4)cn1c23`: the IC50 at Tubulin was found to be 1.79 µM.

As for `C[C@H]1COc2c(N3CCN(C)CC3)c(F)cc3c(=O)c(C(=O)OCc4cn(CCCCCC(=O)NO)nn4)cn1c23`, at Tubulin, the IC50 turned out to be 5.45 µM.

Take `COc1cc2ncnc(Nc3ccc(Cl)cc3Cl)c2cc1OCCCCCCC(=O)NO`: the IC50 in [6] came to 0.084 µM; at Histone deacetylase [2], 0.0028 µM; in the assay with MCF7, 12 µM.

As for `O=C(CCCCCCN1CC(=O)N2[C@H](CC3c4ccccc4NC3[C@H]2c2ccc(Br)cc2)C1=O)NO` (some centres undefined), the IC50 worked out at 0.0462 µM in [4] and 0.0142 µM against Histone deacetylase [1].

In the case of `COc1cc2ncnc(Nc3ccc(Br)cc3)c2cc1OCCCCCCC(=O)NO`, the IC50 in the assay on MCF7 was found to be 0.88 µM.

As to `COc1cc2/c(=N/c3ccc(Br)cc3F)nc[nH]c2cc1OCC1CCN(C)CC1` [VANDETANIB], the concentration for half-maximal inhibition (IC50) was above 10 µM against Histone deacetylase [2] and 18.5 µM with MCF7.

As to `Nc1ccccc1NC(=O)c1ccc(CNC(=O)OCc2cccnc2)cc1` [ENTINOSTAT], the values for the IC50 with DU-145 [10] and in the assay with K562 were 3.75 µM and 21.3 µM, respectively.

For the molecule `Cc1nc(Nc2ncc(C(=O)Nc3c(C)cccc3Cl)s2)cc(N2CCN(CCO)CC2)n1` [DASATINIB], the values for the IC50 with DU-145 [10] and in the assay on K562 were 2.43 µM and 7.44 µM, respectively.

Take `CNC(=O)c1cc(Oc2ccc(NC(=O)c3ccc(N)cc3)cc2)ccc1N`: the concentration for half-maximal inhibition (IC50) on Histone deacetylase [2] is 2.27 µM.

For `CNC(=O)c1cc(Oc2ccc(NC(=O)c3ccc4ccccc4c3)cc2)ccc1N`, the 50% inhibitory concentration (IC50) at Histone deacetylase [2] was found to be 8.21 µM.

`C[C@H]1COc2c(N3CCN(C)CC3)c(F)cc3c(=O)c(C(=O)NCc4cn(CCCCCCCC(=O)NO)nn4)cn1c23`: the IC50 on Tubulin was 6.68 µM.

As for `COc1cc(NC(=O)CCCCCCC(=O)NO)ccc1Nc1nccc(-c2cn(C)c3ccccc23)n1`, the 50% inhibitory concentration (IC50) in [11] was found to be 5.9 µM; on Histone deacetylase 1 [8], 0.085 µM. Also, the inhibition in assay [9] worked out at 15%.

At Histone deacetylase 1 [8], `Cn1cc(-c2ccnc(Nc3ccc(NC(=O)CCCCCC(=O)NO)cc3)n2)c2ccccc21` displayed an IC50 of 0.023 µM. The inhibition in assay [9] came out at 35%.

Turning to `C[C@H]1COc2c(N3CCN(C)CC3)c(F)cc3c(=O)c(C(=O)OCc4cn(CCCCCCC(=O)NO)nn4)cn1c23`, the IC50 at Tubulin was 1.84 µM.
